Data as given in the NIST ThermoML archive (doi:10.1021/je800571y).

Test: xn = mol fraction of the nth substance listed
Settings: 101 kPa, Liquid

CCC(C)=O [butanone] + CC(C)CO
Settings	mass density, 293.15 K [kg/m3]	mass density, 298.15 K [kg/m3]	mass density, 303.15 K [kg/m3]	mass density, 308.15 K [kg/m3]	mass density, 313.15 K [kg/m3]	viscosity, 293.15 K [mPa·s]	viscosity, 298.15 K [mPa·s]	viscosity, 303.15 K [mPa·s]	viscosity, 308.15 K [mPa·s]	viscosity, 313.15 K [mPa·s]
x1 = 0.0684	801.9	797.93	794.21	790.04	786.54	3.138	2.611	2.24	1.913	1.625
x1 = 0.1365	802.11	798.06	794.25	790.03	786.39	2.429	2.054	1.78	1.534	1.33
x1 = 0.2044	802.32	798.18	794.29	790	786.22	1.862	1.566	1.404	1.193	1.074
x1 = 0.2721	802.52	798.29	794.32	789.98	786.06	1.426	1.206	1.104	0.9579	0.8538
x1 = 0.3395	802.72	798.41	794.36	789.95	785.89	1.111	0.9449	0.8637	0.7612	0.6894
x1 = 0.4066	802.92	798.52	794.39	789.92	785.73	0.8561	0.7513	0.676	0.6222	0.5674
x1 = 0.4735	803.13	798.63	794.42	789.89	785.56	0.7002	0.607	0.5418	0.5176	0.46
x1 = 0.5402	803.33	798.75	794.46	789.87	785.4	0.6142	0.5305	0.4663	0.4456	0.3948
x1 = 0.6066	803.54	798.87	794.49	789.85	785.23	0.538	0.4883	0.4135	0.4102	0.34
x1 = 0.6727	803.75	798.99	794.53	789.83	785.08	0.5271	0.4556	0.3743	0.3752	0.3138
x1 = 0.7387	803.97	799.12	794.58	789.82	784.92	0.5071	0.4444	0.3713	0.3573	0.2909
x1 = 0.8044	804.2	799.25	794.63	789.81	784.77	0.5079	0.4189	0.3607	0.3498	0.2754
x1 = 0.8698	804.43	799.4	794.68	789.8	784.62	0.4996	0.4217	0.3443	0.3334	0.28
x1 = 0.935	804.67	799.54	794.74	789.79	784.47	0.4722	0.3617	0.3135	0.3005	0.2769
x1 = 1	804.92	799.7	794.81	789.78	784.32	0.3956	0.2828	0.2666	0.2601	0.2545
